Measurements published in patent US20040005537A1, “Method of identifying toxic agents using differential gene expression” (priority 2000, published 2004).

Test system: rat heart tissue
Test: GENECALLING differential gene expression analysis after dosing of serotonin modulating agents
Type: in vivo, Sprague Dawley rats
Method in brief: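 Rats dosed with serotonin modulating agents, controls given sterile water or canola oil; tissue taken 24 h after the last dose. Total RNA converted to cDNA and profiled by GENECALLING differential expression analysis; fragments changed more than ±1.5-fold were selected.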

## CN1C[C@H](C(=O)N[C@]2(C)O[C@@]3(O)[C@@H]4CCCN4C(=O)[C@H](Cc4ccccc4)N3C2=O)C[C@@H]2c3cccc4[nH]cc(c34)C[C@H]21 [dihydroergotamine]
CARDIOTOX 1
  Effects on Transcription Level: Novel gene fragment, 524 bp, 86% SI to mouse F-box protein FBX6b [AF176526]: +1.3 fold
CARDIOTOX 2
  Effects on Transcription Level: Novel gene fragment, 306 bp, 91% SI to mouse low density lipoprotein receptor related protein 4 [AB013874]: −1.4 fold
CARDIOTOX 3
  Effects on Transcription Level: Novel gene fragment, 540 bp, 97% SI to mouse skeletal muscle alpha-actin [X03766]: +1.2 fold
CARDIOTOX 4
  Effects on Transcription Level: Novel gene fragment, 80 bp: −1.4 fold
CARDIOTOX 5
  Effects on Transcription Level: Novel gene fragment, 957 bp, 99% SI to kidney injury associated moleculer HW036 [V80591]: −1.4 fold
CARDIOTOX 6
  Effects on Transcription Level: Novel gene fragment, 282 bp, 85% SI to human KIAA1515 protein [AB040948]: −1.2 fold
CARDIOTOX 7
  Effects on Transcription Level: Novel gene fragment, 405 bp, 88% SI to human 2-oxoglutarate dehydrogenase [D10523]: +1.3 fold
CARDIOTOX 8, GenBank AB010743
  Effects on Transcription Level: UCP2: +1.0 fold
CARDIOTOX 9, GenBank J03753
  Effects on Transcription Level: Plasma membrane Ca2 + ATPase-isoform 1: −1.4 fold
CARDIOTOX 10
  Effects on Transcription Level: Novel gene fragment, 242 bp, 97% SI to mouse HSP86 heat-shock protein [X16857]: +1.0 fold
CARDIOTOX 11
  Effects on Transcription Level: Novel gene fragment, 280 bp, 65% SI to human TRF1-interacting, ankyrin-related ADP-ribose polymerase [AF082556]: +1.3 fold
CARDIOTOX 12
  Effects on Transcription Level: Novel gene fragment, 348 bp, 88% SI to mouse Sec61 protein complex gamma subunit [U11027]: +1.4 fold
CARDIOTOX 13
  Effects on Transcription Level: Novel gene fragment 553 bp, 93% SI to mouse Sid329 [AB024984]: +1.2 fold
CARDIOTOX 14, GenBank AB020759
  Effects on Transcription Level: Kruppel-like transcription factor: +1.2 fold
CARDIOTOX 15, GenBank X62166
  Effects on Transcription Level: Ribosomal protein L3: +1.4 fold
CARDIOTOX 16, GenBank S78556
  Effects on Transcription Level: Glucose-regulated protein (GRP) 75: +1.2 fold
CARDIOTOX 17, GenBank M14050
  Effects on Transcription Level: Immunoglobulin heavy chain binding protein (BiP): +1.2 fold
CARDIOTOX 18, GenBank X56541
  Effects on Transcription Level: Membrane-spannining proteoglycan NG2: −1.4 fold
CARDIOTOX 19
  Effects on Transcription Level: Novel gene fragment, 1294 bp, 96% SI to mouse Sui 1 (elF) homolog [AF129888]: +1.1 fold
CARDIOTOX 20
  Effects on Transcription Level: Novel gene fragment, 723 bp, 85% SI to human translation initiation factor elF3 p40 subunit [U54559]: +1.2 fold
CARDIOTOX 21
  Effects on Transcription Level: Novel gene fragment, 1324 bp, 76% SI to human flavoprotein subunit of complex II [D30648]: +1.3 fold
CARDIOTOX 22
  Effects on Transcription Level: Novel gene fragment, 852 bp, 81% SI to human vacuolar proton-ATPase subunit M9.2 [Y15286]: +1.4 fold
CARDIOTOX 23
  Effects on Transcription Level: Novel gene fragment, 178 bp, 91% SI to mouse myosin light chain-2 isoform MLC-2a [S70785]: +1.2 fold
CARDIOTOX 24
  Effects on Transcription Level: Novel gene fragment, 167 bp, 90% SI to mouse Rab20 [X80332]: +1.2 fold
CARDIOTOX 25
  Effects on Transcription Level: Novel gene fragment, 1070 bp, 80% SI to human muscle-specific protein [AF249873]: +1.2 fold
CARDIOTOX 26
  Effects on Transcription Level: Novel gene fragment, 1143 bp, 82% SI to human sarcoma amplified sequence (SAS) [U01160]: +1.4 fold
CARDIOTOX 27
  Effects on Transcription Level: Novel gene fragment, 74 bp,75% SI to human secreted protein [X30160] (from patent database)/[X97578] (from patent database)/potential cytokine): +1.4 fold
CARDIOTOX 28
  Effects on Transcription Level: Novel gene fragment, 408 bp, 90% SI to human CGI-07 protein [AF132941]: +1.2 fold
CARDIOTOX 29
  Effects on Transcription Level: Novel gene fragment, 618 bp, 95% SI to rat progression related cDNA, ZNPE-120 3′ end partial sequence [patent database X90805]: +1.0 fold
CARDIOTOX 30
  Effects on Transcription Level: Novel gene fragment, 717 bp: +1.2 fold
CARDIOTOX 31
  Effects on Transcription Level: Novel gene fragment, 546 bp: −1.0 fold
CARDIOTOX 32
  Effects on Transcription Level: Novel gene fragment, 920 bp, 91% SI to human HSPC061 [AF161546]: +1.3 fold
CARDIOTOX 33
  Effects on Transcription Level: Novel gene fragment, 203 bp, 92% SI to rabbit sarcoplasmic reticulum glycoprotein [J04480]: −1.1 fold
CARDIOTOX 34
  Effects on Transcription Level: Novel gene fragment, 178 bp, 68% SI to mouse IgG receptor (beta-Fc-gamma-RII)[M63159]: +1.2 fold
CARDIOTOX 35, GenBank X87107
  Effects on Transcription Level: Ribosomal protein L6: +1.4 fold
CARDIOTOX 36, GenBank U31935
  Effects on Transcription Level: CAP2 protein (adenylyl cyclase-associated protein 2): +1.2 fold
CARDIOTOX 37, GenBank M63837
  Effects on Transcription Level: Alpha-platelet-derived growth factor receptor: −1.0 fold
CARDIOTOX 38, GenBank X74402
  Effects on Transcription Level: Rab GD1 alpha protein: −1.1 fold
CARDIOTOX 39, GenBank Y08355
  Effects on Transcription Level: PKC-zeta-interacting protein: +1.2 fold
CARDIOTOX 40, GenBank X65198
  Effects on Transcription Level: ERK or MAP kinase: +1.4 fold
CARDIOTOX 41, GenBank U37486
  Effects on Transcription Level: Peroxisomal multifunctional enzyme type II: +1.2 fold
CARDIOTOX 42, GenBank D30035
  Effects on Transcription Level: HBP23 (heme-binding protein 23 kDa): +1.3 fold
CARDIOTOX 43, GenBank U90725
  Effects on Transcription Level: Caveolae-associated protein: +1.3 fold
CARDIOTOX 44, GenBank AF025506
  Effects on Transcription Level: Prenylated rab acceptor 1 (PRA1): +1.0 fold
CARDIOTOX 45
  Effects on Transcription Level: Novel gene fragment, 337 bp, 88% SI to rabbit cardiac ryanodine receptor (RyR-2)[U50465]: −2.5 fold
CARDIOTOX 46
  Effects on Transcription Level: Novel gene fragment, 81 bp, 85% SI to human titin [X90568]: −2.8 fold
CARDIOTOX 47
  Effects on Transcription Level: Novel gene fragment, 428 bp, 86% SI to human titin [X90568]: −1.7 fold
CARDIOTOX 48
  Effects on Transcription Level: Novel gene fragment, 374 bp, 88% SI to human titin [X90568]: −5.5 fold
CARDIOTOX 49
  Effects on Transcription Level: Novel gene fragment, 428 bp, 85% SI to human titin [90568]: −3.8 fold
CARDIOTOX 50
  Effects on Transcription Level: Novel gene fragment, 1216 bp, 93% SI to mouse mircotubule-associated protein (MAP) 1B protein [AF115776]: −1.5 fold
CARDIOTOX 51
  Effects on Transcription Level: Novel gene fragment, 1115 bp, 83% SI to human KIAA0549 protein [AB011121]: −1.5 fold
CARDIOTOX 52
  Effects on Transcription Level: Novel gene fragment, 153 bp: −1.7 fold
CARDIOTOX 53
  Effects on Transcription Level: Novel gene fragment, 89 bp, 93% SI to human putative glialblastoma cell differentiation-related protein (GBDR1) [AF068195]: +1.5 fold
CARDIOTOX 54, GenBank U61266
  Effects on Transcription Level: Rho-associated kinase beta: −2.6 fold
CARDIOTOX 55, GenBank D13062
  Effects on Transcription Level: Adenylate kinase 3: +1.5 fold
CARDIOTOX 56, GenBank AF049878
  Effects on Transcription Level: Amyloid beta-peptide binding protein: +1.7 fold
CARDIOTOX 57, GenBank D12771
  Effects on Transcription Level: Mitochondrial adenine nuleotide translocator: +1.8 fold
CARDIOTOX 58
  Effects on Transcription Level: Novel gene fragment, 710 bp, 94% SI to mouse chromatin structural protein homolog Supt5 hp (Supt5 h)[U88539]: +2.8 fold
CARDIOTOX 60
  Effects on Transcription Level: Novel gene fragment, 186 bp, 66% SI to human N-acetylglucosaminyltransferase 1 (GlcNAc-TI)[M55621]: −1.5 fold
CARDIOTOX 61
  Effects on Transcription Level: Novel gene fragment, 238 bp, 95% SI to mouse MAP kinase-activated protein kinase 2 [X76850]: −1.5 fold
CARDIOTOX 62
  Effects on Transcription Level: Novel gene fragment, 173 bp, 70% SI to G protein-coupled receptor kinase GRK4 [X97568]: −7.2 fold
CARDIOTOX 63
  Effects on Transcription Level: Novel gene fragment, 133 bp, 77% SI to human apoptosis related protein hSARP3 [patent database: V19114]: −2.5 fold
CARDIOTOX 64
  Effects on Transcription Level: Novel gene fragment, 477 bp, 98% SI to peroxisomal phytanoyl-CoA hydroxylase (PHYH) [AF121345]: +8.0 fold
CARDIOTOX 65
  Effects on Transcription Level: Novel gene fragment, 413 bp, 95% SI to mouse dihydrolipoamide dehydrogenase (Dld) [U73445]: +2.2 fold
CARDIOTOX 66
  Effects on Transcription Level: Novel gene fragment, 726 bp, 76% SI to human succinate dehydrogenase flavoprotein subunit (SDH) [L21936]: −3.6 fold
CARDIOTOX 67
  Effects on Transcription Level: Novel gene fragment, 440 bp, 92% SI to mouse cytochrome c oxidase Vllc [X52940]: +4.1 fold
CARDIOTOX 68
  Effects on Transcription Level: Novel gene fragment, 276 bp, 80% SI to human titin [X90568]: −6.5 fold
CARDIOTOX 69
  Effects on Transcription Level: Novel gene fragment, 149 bp, 70% SI to human titin [X90568]: +8.0 fold
CARDIOTOX 70
  Effects on Transcription Level: Novel gene fragment, 467 bp, 94% SI to mouse gelsolin [J04953]: −1.6 fold
